The values that follow come from patent US12453776B2, “Lipids and compositions for the delivery of therapeutics” (ARBUTUS BIOPHARMA CORPORATION, priority 2008, dated 2025).

In this assay the test system is Factor VII. As to the kind of experiment: In vivo FVII knockdown by FVII siRNA lipid formulations (chromogenic Factor VII assay, serum 24 h after i.v. dosing). To be noted: female C57Bl/6 mice, i.v. tail vein, cationic lipid/DSPC/cholesterol/PEG-lipid 40/10/40/10 with FVII siRNA, no unit at the values, method gives ED50 in mg/kg. The method, then: Cationic lipid containing particles were made using the preformed vesicle method. Cationic lipid, DSPC, cholesterol and PEG-lipid were solubilised in ethanol at a molar ratio of 40/10/40/10, respectively. The lipid mixture was added to an aqueous buffer (50 mM citrate, pH 4) with mixing to a final ethanol and lipid concentration of 30% (vol/vol) and 6.1 mg/mL respectively and allowed to equilibrate at room temperature for 2 min before extrusion. The hydrated lipids were extruded through two stacked 80 nm pore-sized filters (Nuclepore) at 22° C. using a Lipex Extruder (Northern Lipids, Vancouver, BC) until a vesicle diameter of 70-90 nm, as determined by Nicomp analysis, was obtained. This generally required 1-3 passes.
The FVII siRNA (solubilised in a 50 mM citrate, pH 4 aqueous solution containing 30% ethanol) was added to the vesicles, pre-equilibrated to 35° C., at a rate of ˜5 mL/min with mixing. […] The final encapsulated siRNA-to-lipid ratio was determined after removal of unencapsulated siRNA using size-exclusion spin columns or ion exchange spin columns.
Test formulations were initially assessed for their FVII knockdown in female 7-9 week old, 15-25 g, female C57Bl/6 mice at 0.1, 0.3, 1.0 and 5.0 mg/kg with 3 mice per treatment group. […] Mice were weighed and the appropriate dosing volumes calculated (10 μl/g body weight). […]

For the molecule `CCCCC/C=C\C/C=C\CCCCCCCCC(CCCCCCCC/C=C\C/C=C\CCCCC)OC(=O)CCCN(CC)CC` [DLin-M-C3-DEA], the ED50 (dose resulting in a 50% reduction in plasma FVII levels compared to control animals) is 0.3 mg/kg. Turning to `CCCCC/C=C\C/C=C\CCCCCCCCC(CCCCCCCC/C=C\C/C=C\CCCCC)OC(=O)CCCN(C(C)C)C(C)C` [DLin-M-C3-DIPA], the ED50 (dose resulting in a 50% reduction in plasma FVII levels compared to control animals) worked out at 4.5 mg/kg.
